Measured values taken from paper PMC7160673, “A Degenerate Peptide Library Approach to Reveal Sequence Determinants of Methyllysine-Driven Protein Interactions” (Frontiers in Cell and Developmental Biology, 2020).

What was measured:
Assay type in all cases: binding
[1] = test system: Millipore #07-449, anti-H3K27me3; assay: Histone peptide microarray, Millipore 07-449; details: Millipore 07-449 (anti-H3K27me3) hits, average signal per peptide
Protocol: (§1) Peptide microarrays were fabricated using an Aushon 2470 microarrayer and used as described ([Cornett et al., 2017]) with the following modifications. Protein and antibody hybridization steps were performed in buffer containing 25 mM HEPES pH 7.5, 100 mM NaCl, 0.5% BSA (w/v), and 0.1% NP-40. Slides were washed 3 × 5 min in PBS supplemented with 0.1% Tween-20 between each hybridization step. Antibodies used were primary anti-GST (Sigma #7781, 1:2,000 dilution) and an AlexaFluor 647-labeled secondary antibody (Life Technologies A-21245, 1:5,000 dilution). […] Full lists of peptides queried by array analysis are in Supplementary Table S2.

[2] = test system: Abcam #ab8895, anti-H3K4me1; assay: Histone peptide microarray, Abcam ab8895; details: Abcam ab8895 (anti-H3K4me1) hits, average signal per peptide
Protocol: as §1

[3] = test system: Active Motif #39161, anti-H3K9me3; assay: Histone peptide microarray, Active Motif 39161; details: Active Motif 39161 (anti-H3K9me3) hits
Protocol: as §1
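Note: normalized to the highest peptide average per subarray.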

Substance | Avg Signal [1] | Avg Signal [2] | Avg Signal [3]
AGGK(Ac)AGK(Ac)DSGK(Ac)AKTKAVSR-Peg-Biot [H2A.Z.1K4acK7acK11ac] | 0.00926 | 0.0004754 | 0.0007875
AGGKAGKDSGKAKTKAVSR-Peg-Biot [H2A.Z.1 unmod (1-19)] | 0.001328 | – | –
AGGRAGRDSGRAKTKAVSR-Peg-Biot [H2A.Z.1K4RK7RK11R] | 0.008119 | 0.03173 | 0.02573
ARTKQTAR(Me2s)KSTGGKAPRKQL-Peg-Biot [Peptide H3.1R8me2s] | – | 0.05819 | 0.0002677
ARTKQTARKSTGG-NleAPRKQL-Peg-Biot [Peptide H3.1K14-Nle] | 0.0002842 | 0.09623 | –
ARTKQTARKSTGGK(Me2)APRKQL-Peg-Biot [Peptide H3.1K14me2] | 0.003481 | 0.15 | 0.004075
ARTKQTARKSTGGK(Me3)APRKQL-Peg-Biot [Peptide H3.1K14me3] | 0.01888 | 0.148 | –
ARTKQTARKSpTGGKAPRKQL-Peg-Biot [Peptide H3.1T11p] | 0.0009523 | 0.1657 | 0.0006879
ATKAACitKSAPATGGVKKPHRYRPGGG-K(Biotin)-OH [H3.1K27acK36me3] | 0.01344 | 0.0002929 | 0.01207
ATKAARK(Ac)SAPATGGVK(Me2)KPHRYRPG-GK(Biotin)-OH [H3.1K27acK36me2] | 0.003089 | 0.002974 | 0.009849
ATKAARK(Ac)SAPATGGVK(Me)KPHRYRPG-GK(Biotin)-OH [H3.1K27acK36me1] | 0.006337 | 0.01424 | 0.01097
Ac-AGGK(Ac)AGK(Ac)DSGK(Ac)AKTKAVSR-Peg-Biot [H2A.Z.1K4acK7acK11acN-ac] | 0.0008552 | 4.222e-5 | 0.000221
Ac-AGGKAGKDSGKAKTKAVSR-Peg-Biot [H2A.Z.1(1-19)N-ac] | 0.007006 | 0.002647 | –
Ac-APRK(Ac)QLATK(Ac)AARK(Ac)SAPSTGG-Peg-Biot [H3.3K18acK23acK27ac] | 0.005039 | – | 0.0217
Ac-APRKQLATKAARK(Ac)SAPATGG-Peg-Biot [Peptide H3.1K27ac] | 0.003716 | – | 0.002581
Ac-APRKQLATKAARK(Ac)SAPSTGG-Peg-Biot [Peptide H3.3K27ac] | – | 0.011 | 0.002855
Ac-APRKQLATKAARKpSAPSTGG-Peg-K(Biot)-NH2 [Peptide H3.3S28p] | 0.00807 | 0.002135 | 0.006366
Ac-APRKQLATKAARR(Me2a)K(Me)SAPSTGG-Peg-Biot [H3.3R26me2aK27me1] | 0.002329 | 0.000609 | –
Ac-ARAKAKTRSSRAGLQF-Peg-Biotin [H2A(10-25)] | 0.005421 | – | –
Ac-RRYQK(Ac)STELL-Peg-Biot [Peptide H3.1K56ac] | 0.004595 | – | –

Substance | Avg Signal [1] | Avg Signal [2] | Avg Signal [3]
Ac-RRYQK(Me3)STELL-Peg-Biot [Peptide H3.1K56me3] | 0.0004417 | – | 0.01852
Ac-SGR(Me2a)GK(Ac)GGKGLGKGGAKRHRKVLR-K(Biot)-NH2 [Peptide H4R3me2aK5ac] | – | 0.006503 | 0.0007875
Ac-SGRGK(Ac)GGK(Ac)GLGK(Me)GGAK(Ac)RHRKVLR-Peg-Biot [H4K5acK8acK12me1K16ac] | – | 0.02773 | 0.0008155
Ac-SGRGK(Ac)GGK(Ac)GLGKGGAK(Ac)RHRKVLR-Peg-Biot [H4K5acK8acK16ac] | – | – | 0.009927
Ac-SGRGK(Ac)GGK(Ac)GLGKGGAKRHRKVLR-Peg-Biot [Peptide H4K5acK8ac] | 0.02195 | 0.0004782 | –
Ac-SGRGK(Ac)GGKGLGK(Ac)GGAK(Ac)RHRKVLR-Peg-Biot [H4K5acK12acK16ac] | 0.0005303 | – | –
Ac-SGRGK(Ac)GGKGLGKGGAK(Ac)RHRKVLR-Peg-Biot [Peptide H4K5acK16ac] | 0.0005008 | – | 0.0002957
Ac-SGRGK(Pro)GGK(Pro)GLGK(Pro)GGAKRHRKVLR-Peg-Biot [H4K5proK8proK12pro] | 0.02856 | – | 0.005323
Ac-SGRGKGGK(Ac)GLGK(Ac)GGAK(Ac)RHRKVLR-Peg-Biot [H4K8acK12acK16ac] | 0.005254 | 0.004192 | –
Ac-SGRGKGGK(Ac)GLGKGGAKRHRK(Ac)VLR-Peg-Biot [Peptide H4K8acK20ac] | 0.001712 | – | 0.003203
Ac-TGGKAPR-NleQLATKAAR-Peg-Biot [Peptide H3.1K18-Nle] | 0.005136 | – | 0.003627
Biot-Peg-GKKATQASQEY-OH [H2A.X(132-142)] | 0.01738 | 0.00268 | –
H3.1.1(15-34) | – | – | 0.01508
IHQNLLPKK-pS-AKATKASQ-Peg-Biot [yH2AS121p] | 0.007624 | – | 0.006042
IHQNLLPKKSAKATKASQ-Peg-Biot [yH2A(112-129)] | 0.0006752 | 0.01029 | 0.005669
KSAPSpTGGVKKPHRYRPGT-G-K(Biot)-NH2 [Peptide H3.3T32p] | 0.006003 | 0.0003862 | 0.001353
KSAPpSTGGVK(Me3)KPHRYRPGTV-K(biotin)-NH2 [H3.3S31pK36me3] | 0.01017 | – | 0.01189
PEPAKSAPAPKK(Ac)GSKKAVTKAQKK-Peg-Biot [Peptide H2BK12ac] | 0.004181 | – | 0.0009681
PEPAKSAPAPKKGSKK(Ac)AVTKAQKK-Peg-Biot [Peptide H2BK16ac] | 0.006632 | 0.001252 | 0.01682
